In paper PMC10708539, “Two Antimicrobial Peptides Derived from Bacillus and Their Properties” (Molecules, 2023):
Ends that are not written are not given here.

Legend:
[1] = tested on: St. aureus ACCC 10499; format: cell-based, Staphylococcus aureus
Description: (§1) The minimum inhibitory concentrations (MICs) of purified antimicrobial peptides against St. aureus ACCC 10499, B. cereus ACCC 04315, and Sa. enterica ACCC 01996 were determined by the double dilution method. The indicator bacteria cultures were diluted to an OD600 of 0.5 respectively, of which 50 μL of them were added into the sterile 96-well plate, and then 50 μL antimicrobial peptide samples with different concentrations were mixed with each indicator bacterium at a 1:1 ratio. The experiment was performed in three parallel sets. After incubation at 37 °C for 12–18 h, the OD600 value was determined by an Automatic growth curve analyzer (Bioscreen C, Turku, Finland), and the minimum concentration of 100% inhibition of indicator bacteria growth was used as the minimum inhibitory concentration.

[2] = tested on: B. cereus ACCC 04315; format: cell-based, Bacillus cereus
Description: as §1

[3] = tested on: Sa. enterica ACCC 01996; experiment: MIC by double dilution method; format: cell-based, Salmonella enterica; conditions: 96-well plate, culture OD600 0.5 mixed 1:1 with peptide, 37 °C 12–18 h, OD600 read-out, minimum concentration of 100% growth inhibition, three parallel sets
Description: as §1

[4] = tested on: pepsin; experiment: Protease stability of antimicrobial peptides; format: in vitro ADME; conditions: mixed 1:1 with 1 mg/mL pepsin, water bath 37 °C 1 h, then boiling water bath 5 min; control without protease; read-out inhibition circles against St. aureus ACCC 10499
Description: (§2) Appropriate amounts of purified antimicrobial peptide samples were placed in a water bath at 40 °C, 60 °C, 80 °C, 90 °C, and 100 °C for 30 min and high-temperature autoclave sterilization at 121 °C for 15 min respectively, to carry out temperature sensitivity tests. St. aureus ACCC 10499 was used as an indicator bacterium, and untreated samples were used as controls, with three parallel groups for each sample to observe the change in antibacterial activity. Similarly, the pH of the same amount for the antimicrobial peptide samples was adjusted to 2~10 in intervals of 1, and the neutral pH was 7.0 as the control. The samples with a different pH were kept in a water bath at 37 °C for 30 min. St. aureus ACCC 10499 was used as an indicator bacterium to detect the resistance of the antimicrobial peptide to an acid and base. In addition, appropriate antimicrobial peptide samples were mixed with 1 mg/mL solution of protease K, trypsin, and pepsin at 1:1, and were kept in a water bath at 37 °C for 1 h, followed by a boiling water bath for 5 min to inactivate the enzymes. The samples without protease treatment were used as controls and the changes in antibacterial activity were observed.

[5] = molecular target: protease K (Parengyodontium album, UniProt P06873); experiment: Protease stability of antimicrobial peptides; format: in vitro ADME; conditions: mixed 1:1 with 1 mg/mL protease K, water bath 37 °C 1 h, then boiling water bath 5 min; control without protease; read-out inhibition circles against St. aureus ACCC 10499
Description: as §2

[6] = tested on: trypsin; experiment: Protease stability of antimicrobial peptides; format: in vitro ADME; conditions: mixed 1:1 with 1 mg/mL trypsin, water bath 37 °C 1 h, then boiling water bath 5 min; control without protease; read-out inhibition circles against St. aureus ACCC 10499
Description: as §2

protease K, sequence (P06873 106-384): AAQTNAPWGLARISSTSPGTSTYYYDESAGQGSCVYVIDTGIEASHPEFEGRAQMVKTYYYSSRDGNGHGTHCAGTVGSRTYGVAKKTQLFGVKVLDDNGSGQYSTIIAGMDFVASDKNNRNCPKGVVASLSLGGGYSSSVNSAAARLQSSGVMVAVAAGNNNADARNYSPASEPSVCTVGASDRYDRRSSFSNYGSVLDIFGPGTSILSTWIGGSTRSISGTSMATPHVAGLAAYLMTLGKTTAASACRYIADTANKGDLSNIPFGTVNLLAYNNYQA

Row | Sequence | MIC [1] [µg/mL] | MIC [2] [µg/mL] | MIC [3] [µg/mL] | MIC ([3]; listed as peptide-II) [µg/mL] | Antibacterial activity after treatment with pepsin [4] | Antibacterial activity after treatment with protease K [5] | Antibacterial activity after treatment with trypsin [6]
1 | FSGSGSGTAFTLR [Peptide-II] | 16 | 64 | 16 | 8 | no significant effect | significantly reduced | no significant effect
2 | VFLENVLR [Peptide-I] | 64 | 32 | 8 | – | insensitive | insensitive | insensitive
